This note sets out measurements from patent US20050113413A1, “Naphthalene-1,5-disulfonic acid salts of a substituted 4-amino-1-(pyridylmethyl)piperidine compound” (priority 2003, published 2005).

In this assay the test system is rat bladder (volume-induced bladder contractions). Briefly: In vivo rat bladder assay (volume-induced bladder contraction amplitude). The following applies: anesthetized female rats, intravenous, normalized to atropine response. Details: species or system Sprague-Dawley rats. The protocol: Female Sprague-Dawley rats (Harlan, Indianapolis, Ind.) weighing 200 to 300 g were anesthetized with urethane (1.5 g/kg, s.c., Sigma, St. Louis, Mo.), with a supplement of 0.25 g/kg, s.c. urethane as needed. Urethane was administered at a concentration of 0.25 g/mL.
Rats were prepared for surgery by shaving the neck and abdomen and cleansing with ethanol wipes. First, an incision was made on the ventral surface. An intravenous catheter was placed by isolating and ligating the femoral vein. […]
Thereafter, an intravenous dose of the test compound was administered and changes in VIBCAmp were recorded for 15 minutes. Atropine (0.1 mg/kg) was then administered intravenously (1 mL/kg) as a positive control and VIBCAmp and data was recorded for an additional 15 minutes. […]
Alternatively, after the vehicle, increasing cumulative intravenous doses of the test compound were administered at 15 minute intervals (1 mL/kg) and changes in VIBCAmp were recorded for 15 minutes. […]
The average VIBCAmp during the 5-15 minute period after test compound and atropine was determined and subtracted from the average VIBCAmp during the 5-15 minute post-vehicle period to obtain the test compound or atropine-induced change in VIBCAmp. […]

For `COc1ccncc1CN1CCC(N(CCCCCCCN2CC[C@@H](C(C(N)=O)(c3ccccc3)c3ccccc3)C2)C(C)C)CC1` [Example 6], the “ID50 (dose required to produce 50% of the maximal response), VIBCAmp” value is reported as “less than or equal to 0.1 mg/kg”.
